{
  "source": "patent EP1247803A2",
  "about": "“Indolinone compounds suitable for modulation of protein kinases” (Sugen, Inc., priority 1996, dated 1998)",
  "data": [
    {"biological_target": "T1, FLK-1 receptor (Mus musculus, UniProt P35918)", "T1 construct": "expressed in transfected cells; host or cells: NIH3T3 C7#3", "T1 sequence (P35918 20-1345)": "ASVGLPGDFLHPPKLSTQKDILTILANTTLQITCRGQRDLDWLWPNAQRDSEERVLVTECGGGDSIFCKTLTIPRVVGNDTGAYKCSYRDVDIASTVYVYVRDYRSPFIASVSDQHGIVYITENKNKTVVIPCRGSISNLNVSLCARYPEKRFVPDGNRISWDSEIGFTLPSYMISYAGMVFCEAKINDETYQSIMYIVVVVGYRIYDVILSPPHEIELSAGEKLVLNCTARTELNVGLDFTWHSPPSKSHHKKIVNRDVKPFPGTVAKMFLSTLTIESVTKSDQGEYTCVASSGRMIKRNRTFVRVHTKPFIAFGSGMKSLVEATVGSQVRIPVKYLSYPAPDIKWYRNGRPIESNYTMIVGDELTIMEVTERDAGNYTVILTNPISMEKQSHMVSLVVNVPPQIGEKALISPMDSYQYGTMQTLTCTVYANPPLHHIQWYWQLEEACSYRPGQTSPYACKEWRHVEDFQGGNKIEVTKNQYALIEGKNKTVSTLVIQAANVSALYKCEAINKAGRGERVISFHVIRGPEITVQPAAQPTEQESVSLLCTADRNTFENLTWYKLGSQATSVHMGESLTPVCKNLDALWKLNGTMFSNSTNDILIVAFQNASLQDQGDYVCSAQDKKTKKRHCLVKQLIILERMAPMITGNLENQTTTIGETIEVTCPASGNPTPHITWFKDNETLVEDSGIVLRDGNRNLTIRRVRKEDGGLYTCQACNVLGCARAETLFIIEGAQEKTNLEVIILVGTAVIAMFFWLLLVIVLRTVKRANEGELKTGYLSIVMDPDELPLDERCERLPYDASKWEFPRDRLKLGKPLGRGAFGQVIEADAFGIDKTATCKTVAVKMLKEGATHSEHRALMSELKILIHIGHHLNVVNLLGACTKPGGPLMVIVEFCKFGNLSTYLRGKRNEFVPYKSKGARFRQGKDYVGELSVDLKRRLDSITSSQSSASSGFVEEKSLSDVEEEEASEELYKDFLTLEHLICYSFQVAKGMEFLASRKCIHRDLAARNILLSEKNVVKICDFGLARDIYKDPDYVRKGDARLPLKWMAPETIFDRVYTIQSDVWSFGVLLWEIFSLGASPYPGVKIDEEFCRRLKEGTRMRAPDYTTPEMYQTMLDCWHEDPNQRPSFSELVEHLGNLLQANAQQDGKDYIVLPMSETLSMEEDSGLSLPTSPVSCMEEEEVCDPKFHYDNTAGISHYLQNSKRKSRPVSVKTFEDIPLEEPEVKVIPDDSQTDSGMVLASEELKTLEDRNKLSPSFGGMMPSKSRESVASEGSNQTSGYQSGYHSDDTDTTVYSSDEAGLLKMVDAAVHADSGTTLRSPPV", "assay": "FLK-1 ELISA (kinase activity of the FLK-1 receptor in FLK-1/NIH3T3 cells, VEGF stimulated)", "type": "cell-based", "method_in_brief": "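An ELISA using affinity-purified rabbit anti-FLK-1 antiserum on anti-rabbit IgG-coated plates measured VEGF-stimulated FLK-1 kinase activity. NIH3T3 C7#3 cells carrying FLK-1 were serum-starved (0.1% FBS) overnight, then exposed to compound (final 1:200 dilution, 0.5% DMSO) for two hours at 37 °C.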", "units": {"Fik Kinase %Inhibition": "%"}, "values": [
      {"compound": "CNS(=O)(=O)c1ccc2c(c1)C(=Cc1nn(C)cc1Cl)C(=O)N2", "note": "[10721/D03]", "Fik Kinase %Inhibition": 17.8},
      {"compound": "CNS(=O)(=O)c1ccc2c(c1)C(=Cc1cc(C)c(C)s1)C(=O)N2", "note": "[10721/D04]", "Fik Kinase %Inhibition": 15.2},
      {"compound": "CNS(=O)(=O)c1ccc2c(c1)C(=Cc1cc3c([nH]1)CCCC3)C(=O)N2", "note": "[10721/D05]", "Fik Kinase %Inhibition": -25.1},
      {"compound": "CNS(=O)(=O)c1ccc2c(c1)C(=Cc1cc([N+](=O)[O-])cc(CCl)c1O)C(=O)N2", "note": "[10721/D06]", "Fik Kinase %Inhibition": 1.6},
      {"compound": "CNS(=O)(=O)c1ccc2c(c1)C(=Cc1ccc(Cl)s1)C(=O)N2", "note": "[10721/D07]", "Fik Kinase %Inhibition": 6.4},
      {"compound": "CNS(=O)(=O)c1ccc2c(c1)C(=Cc1[nH]c(C)cc1C)C(=O)N2", "note": "[10721/D08]", "Fik Kinase %Inhibition": 3.9},
      {"compound": "CNS(=O)(=O)c1ccc2c(c1)C(=Cc1ccc(O)c(C(C)(C)C)c1)C(=O)N2", "note": "[10721/D09]", "Fik Kinase %Inhibition": 17.6}
    ]}
  ]
}
